In patent publication US6410791B1, “Nitric esters and nitrate salts of specific drugs” (priority 1998, dated 2002):
Where a name gives a salt, the structure may show the parent alone.

What was measured:
[1] = system: tracheal secretion; test: Mucolitic activity: phenol red in the tracheal secretion; assay type: in vivo; settings: male mice, 264 micromoles/Kg i.p. ten minutes before phenol red 500 mg/Kg i.p.; % variation of absorbance versus control group = 100%
Experimental: Mucolitic activity in male mice was evaluated according to the Method of Engler and Zselenyi, J. Pharm. Methods 11, 151, 1984. By this method it is determined the quantity of phenol red in the tracheal secretion. The animals were previously administered i.p. at a dose of 500 mg/Kg with the dye dissolved in physiologic solution. 3 groups of mice (weight 18±2 g), of 10 animal each, were treated i.p. with the dye. One group was the control group. Each of the two treated groups received, ten minutes before the above injection, an i.p. injection of 264 micromoles/Kg of Ambroxol nitrate or Ambroxol hydrochloride, respectively. 30 minutes after the phenol red injection, the animals were sacrificed. The trachea was freed from the surrounding tissues, dissected and washed for 30 minutes in 3 ml of physiologic solution. 0.1 ml of 1 M sodium hydroxide were then added to the physiologic solution. The washings were centrifuged for 15 minutes at 3000 rpm. A spectrophotometric assay was performed on the supernatant in order to determine the concentration of phenol red in the physiologic solution. Mucolitic activity was determined as % variation of absorbance of the sample in the confront of that of the control group, assumed to be 100%.

[2] = system: histamine; test: Antihistaminic activity: experimental bronchoconstriction after i.v. histamine; assay type: in vivo; settings: guinea pig, histamine 2 μg/Kg i.v., compound endovenously, percent values with respect to the control (vehicle = 100)
[3] = system: cough stroke caused by the aerosol (citric acid); test: Anti-tussive activity: cough strokes caused by citric acid aerosol; assay type: in vivo, Guinea pigs; settings: guinea pig, citric acid 7.5% aerosol, 110 micromoles/Kg i.p., 30 minutes after injection, counted for 10 minutes; control group = 100%
Experimental: Guinea pigs (weight 430+20) were treated as described by Braga et Al. Arzneim. Forsch./Drug Res. 43, 550, 1993.
In this pharmacological experiment 5 groups of 8 animals each were formed. One group was not treated and was the control group.
Each animal was placed in a cylindrical glass container having one tubing through each of the two circular flat surfaces. Said tubing were, respectively, for the aerosol inlet and outlet. The outlet tubing is connected to a polygraphic system.
The aerosol was formed from a solution 7.5% by weight of citric acid in water.
The air variation inside the glass container was registered before and after a cough stroke caused by the aerosol. One hour later Dextromethorphan hydrochloride, Dextromethorphan nitrate, Dextrorphan hydrochloride and dextrorphan nitrate were i.p. administered in a physiologic solution at a dose of 110 micromoles/Kg. 30 minutes after the injection the animals were treated with the aerosol. It was then registered the number of cough strokes for a time of 10 minutes. In the following Table III are reported the average response obtained from each treated group, referred to that of the control group, made 100%.

[4] = system: bronchoconstrictive response induced by capsaicin; test: Experimental bronchoconstriction induced by capsaicin (tidal air variation, Konzett apparatus); assay type: in vivo; settings: guinea pig, capsaicin 1 μg/Kg i.v., 0.3 nmoles/min i.v. infusion for 15 minutes; percent values with respect to the control (carrier = 100)
Experimental: (§1) Each groups consisted of eight animals. […] For a total 15 minutes, starting from 5 minutes before capsaicin injection to 10 minutes after) Salbutamol (0.3 nmoles/min), or the corresponding nitrate salt (0.3 nmoles/min) or only the carrier were administered by intravenous infusion were administered to each group.
The heart frequency was determined by an electrocardiographic device, according to the usual methods. The average value of the heart frequency following administration of the vehicle was of 188±7 beats per minute.

[5] = system: heart frequency; test: Heart frequency (tachycardia) by electrocardiographic device during the capsaicin bronchoconstriction test; assay type: in vivo; settings: guinea pig, 0.3 nmoles/min i.v. infusion for 15 minutes; percent values with respect to the control (carrier = 100; vehicle 188±7 beats per minute)
Experimental: as §1
The heart frequency was determined by an electrocardiographic device, according to the usual methods.

Nc1c(Br)cc(Br)cc1CN[C@H]1CC[C@H](O)CC1 [Ambroxol hydrochloride]
Mucolitic activity (%) [1]: 30%

Nc1c(Br)cc(Br)cc1CNC1CCC(O)CC1 (stereo not drawn) [Ambroxol nitrate]
Mucolitic activity (%) [1]: 0%

O=C(O)COCCN1CCN(C(c2ccccc2)c2ccc(Cl)cc2)CC1 (stereo not drawn) [Cetirizine hydrochloride]
Broncocostriction (%) ([2]; hydrochloride): 40%

O=C(O)COCCN1CCN(C(c2ccccc2)c2ccc(Cl)cc2)CC1 (stereo not drawn) [Cetirizine nitrate]
Broncocostriction (%) [2]: 0%

COc1ccc2c(c1)[C@]13CCCC[C@@H]1[C@H](C2)N(C)CC3 [Dextromethorphan hydrochloride]
cough strokes (%) [3]: 30%

COc1ccc2c(c1)[C@@]13CCCC[C@H]1[C@@H](C2)N(C)CC3 [Dextromethorphan nitrate]
cough strokes (%) [3]: 0%

CN1CC[C@@]23CCCC[C@@H]2[C@@H]1Cc1ccc(O)cc13 [Dextrorphan hydrochloride]
cough strokes (%) [3]: 40%

CN1CC[C@]23CCCC[C@H]2[C@H]1Cc1ccc(O)cc13 [Dextrorphan nitrate]
cough strokes (%) [3]: 0%

CC(C)(C)NCC(O)c1ccc(O)c(CO)c1 (stereo not drawn) [Salbutamol.HNO3, Salbutamol nitrate]
Bronchoconstriction (%) [4]: 0%
Tachycardia (%) [5]: 97%

CC(C)(C)NCC(O)c1ccc(O)c(CO)c1 (stereo not drawn) [Salbutamol]
Bronchoconstriction (%) [4]: 0%
Tachycardia (%) [5]: 116%
